Drawing on patent publication US12540141B2, “Spiropyrrolidine derived antiviral agents” (priority 2020, dated 2026), this text covers IC50 for 50 compounds.

Where only a bound is given, the exact number is not on record here.

The assay deals with SARS-CoV-2 3CL-protease (Severe acute respiratory syndrome coronavirus 2, UniProt P0DTD1). Briefly: SARS-CoV-2 3C-Like (3CL) Protease Fluorescence Assay (FRET). In kind it is biochemical. To be noted: SARS-CoV-2 3CL-protease 10 nM, 30 min preincubation at RT, substrate 40 μM.
In general, IC50 refers to the concentration needed to halve the response being measured. A lower IC50 goes with inhibition by little substance. Regarding `CN(C(=O)c1cnn(-c2ccc(F)cc2)c1)[C@@H](CC1CC1)C(=O)N1C[C@]2(C[C@H]1C#N)C(=O)Nc1ccccc12` [Example 405], the half-maximal inhibitory concentration (IC50) is less than 100 nM. In the case of `CN(C(=O)c1ccn(C2CC2)n1)[C@@H](Cc1ccccc1)C(=O)N1C[C@]2(C[C@H]1C#N)C(=O)Nc1ccccc12` [Example 361], the IC50 is less than 100 nM.

Consider `CC(C)C[C@@H](C(=O)N1C[C@]2(C[C@H]1C#N)C(=O)Nc1ccccc12)N(C)C(=O)c1cccc2ncccc12` [Example 214], for which the IC50 is less than 100 nM. The value for `[2H]C([2H])([2H])N(C(=O)c1cn(C2CCC2)nn1)[C@@H](Cc1ccc(F)cc1)C(=O)N1C[C@]2(C[C@H]1C#N)C(=O)Nc1ccccc12` [Example 390] was less than 100 nM; that for `CN(C(=O)C1(c2ccncc2)CC1)[C@@H](CC(C)(C)F)C(=O)N1C[C@]2(C[C@H]1C#N)C(=O)Nc1ccc(Cl)cc12` [Example 473, N—((S)-1-((3R,5′S)-5-chloro-5′-cyano-2-oxospiro[indoline-3,3′-pyrrolidin]-1′-yl)-4-fluoro-4-methyl-1-oxopentan-2-yl)-N-methyl-1-(pyridin-4-yl)cyclopropane-1-carboxamide] was less than 100 nM; that for `CC(C)C[C@@H](C(=O)N1C[C@]2(C[C@H]1C#N)C(=O)Nc1ccccc12)N(C)C(=O)c1cnccn1` [Example 200] was less than 100 nM. The value for `CN(C(=O)c1cnn(C(C)(C)C)c1Cl)[C@@H](CC1CC1)C(=O)N1C[C@]2(C[C@H]1C#N)C(=O)Nc1ccccc12` [Example 409] was less than 100 nM; that for `CC(C)C[C@@H](C(=O)N1C[C@]2(C[C@H]1C#N)C(=O)Nc1ccccc12)N(C)C(=O)c1ccc2ncccc2n1` [Example 303] was less than 100 nM. The result for `[2H]C([2H])([2H])N(C(=O)c1cc(OC(F)F)c2ncccc2c1)[C@@H](CC(C)(C)C)C(=O)N1C[C@]2(C[C@H]1C#N)C(=O)Nc1ccccc12` [Example 383] reads less than 100 nM. With `Cc1cnc2ccc(C(=O)N[C@@H](CC(C)(C)C)C(=O)N3C[C@]4(C[C@H]3C#N)C(=O)Nc3ccccc34)cc2c1` [Example 135], the IC50 is less than 100 nM. The result for `CC(C)C[C@@H](C(=O)N1C[C@]2(C[C@H]1C#N)C(=O)Nc1ccccc12)N(C)C(=O)c1cc2cccnc2cc1F` [Example 275] reads less than 100 nM; that for `CN(C(=O)CCNc1nccs1)[C@@H](CC(C)(C)F)C(=O)N1C[C@]2(C[C@H]1C#N)C(=O)Nc1ccccc12` [Example 547], less than 100 nM. The result for `CC(C)C[C@@H](C(=O)N1C[C@]2(C[C@H]1C#N)C(=O)Nc1ccc(-c3cn(-c4ccccn4)nn3)cc12)N(C)C(=O)c1cc2c(F)cc(F)cc2[nH]1` [Example 507] reads less than 100 nM; that for `CN(C(=O)CCN1CCC1)[C@@H](CC(C)(C)F)C(=O)N1C[C@]2(C[C@H]1C#N)C(=O)Nc1ccccc12` [Example 540], less than 100 nM. The value for `CC(C)(C)C[C@H](NC(=O)c1cnn(C(C)(C)C)c1)C(=O)N1C[C@]2(C[C@H]1C#N)C(=O)Nc1ccccc12` [Example 133] was less than 100 nM; that for `CC(C)(C)C[C@H](NC(=O)c1cn(C2CC2)nn1)C(=O)N1C[C@]2(C[C@H]1C#N)C(=O)Nc1ccccc12` [Example 141] was less than 100 nM; that for `Cc1ccc2c(c1)[C@@]1(C[C@@H](C#N)N(C(=O)[C@H](CC(C)C)N(C)C(=O)OCc3ccccc3)C1)C(=O)N2` [Example 518, benzyl ((S)-1-((3R,5′S)-5′-cyano-5-methyl-2-oxospiro[indoline-3,3′-pyrrolidin]-1′-yl)-4-methyl-1-oxopentan-2-yl)(methyl)carbamate] was less than 100 nM. `CC(C)C[C@@H](C(=O)N1C[C@]2(C[C@H]1C#N)C(=O)Nc1ccc(-c3ccsc3)cc12)N(C)C(=O)c1cc2c(F)cc(F)cc2[nH]1` [Example 513] came in with an IC50 of less than 100 nM. `CC(C)C[C@@H](C(=O)N1C[C@]2(C[C@H]1C(=O)C(=O)NC1CCCCC1)C(=O)Nc1ccccc12)N(C)C(=O)c1cc2c(F)cc(F)cc2[nH]1` [Example 155] returned an IC50 greater than 1000 nM. The value for `CC(C)C[C@@H](C(=O)N1C[C@]2(C[C@H]1C#N)C(=O)Nc1ccccc12)N(C)C(=O)[C@@H](c1cnn(C)c1)C(C)C` [Example 348] was less than 100 nM; that for `CC(C)C[C@@H](C(=O)N1C[C@]2(C[C@H]1C#N)C(=O)Nc1ccccc12)N(C)C(=O)c1ccc2ccccc2c1` [Example 219] was 100 to 1000 nM. The compound `Cc1ccc2cc(C(=O)N(C)[C@@H](CC(C)(C)F)C(=O)N3C[C@]4(C[C@H]3C#N)C(=O)Nc3ccc(Cl)cc34)[nH]c2n1` [Example 471] displayed an IC50 of less than 100 nM. The value for `CC(C)N(C(=O)OC(C)(C)C)[C@@H](Cc1ccccc1)C(=O)N1C[C@]2(C[C@H]1C#N)C(=O)Nc1ccccc12` [Example 161] was greater than 1000 nM. The value for `CC(C)(C)C[C@H](NC(=O)c1cc2c(Cl)cccc2[nH]1)C(=O)N1C[C@]2(C[C@H]1C#N)C(=O)Nc1ccc(Cl)cc12` [Example 450] was less than 100 nM; that for `CC(C)C[C@@H](C(=O)N1C[C@]2(C[C@H]1C#N)C(=O)Nc1ccccc12)N(C)C(=O)c1cc2cccnc2cc1OC(F)F` [Example 253] was less than 100 nM. The value for `CC(C)C[C@@H](C(=O)N1C[C@]2(C[C@H]1C#N)C(=O)Nc1ccccc12)N(C)C(=O)NCc1ccccc1` [Example 433] was less than 100 nM. As for `CC(C)C[C@@H](C(=O)N1C[C@]2(C[C@H]1C#N)C(=O)Nc1ccccc12)N(C)C(=O)c1cc2ccccc2cn1` [Example 212], the IC50 was less than 100 nM.

Take `CC(C)C[C@@H](C(=O)N1C[C@]2(C[C@H]1C#N)C(=O)Nc1ccccc12)N(C)C(=O)c1cccc(OC(F)F)c1` [Example 188]: the half-inhibitory concentration (IC50) was less than 100 nM. Take `[2H]C([2H])([2H])N(C(=O)c1cnn(CC(F)(F)F)c1)[C@@H](CC1CC1)C(=O)N1C[C@]2(C[C@H]1C#N)C(=O)Nc1ccccc12` [Example 395]: the IC50 is less than 100 nM. The value for `C=C(C)c1ccc2c(c1)[C@@]1(C[C@@H](C#N)N(C(=O)[C@H](CC(C)C)N(C)C(=O)c3cc4c(F)cc(F)cc4[nH]3)C1)C(=O)N2` [Example 498, N—((S)-1-((3R,5′S)-5′-cyano-2-oxo-5-(prop-1-en-2-yl)spiro[indoline-3,3′-pyrrolidin]-1′-yl)-4-methyl-1-oxopentan-2-yl)-4,6-difluoro-N-methyl-1H-indole-2-carboxamide] was less than 100 nM; that for `CC(C)C[C@@H](C(=O)N1C[C@]2(C[C@H]1C#N)C(=O)Nc1ccccc12)N(C)C(=O)c1cccc(N)n1` [Example 199] was 100 to 1000 nM. As to `CC(C)C[C@@H](C(=O)N1C[C@]2(C[C@H]1C#N)C(=O)Nc1ccccc12)N(C)C(=O)c1cccc(F)c1Cl` [Example 164], the IC50 is less than 100 nM.

Turning to `COc1ccccc1CN(C(=O)C(F)(F)F)[C@@H](CC(C)C)C(=O)N1C[C@]2(C[C@H]1C#N)C(=O)Nc1ccccc12` [Example 431], the IC50 was greater than 1000 nM. The result for `CC(C)C[C@@H](C(=O)N1C[C@]2(C[C@H]1C#N)C(=O)Nc1ccccc12)N(C)C(=O)c1cc(OC2CC2)n2nc(C3CC3)cc2c1` [Example 315] reads less than 100 nM. The result for `CN(C(=O)c1cc2c(F)cc(F)cc2[nH]1)[C@@H](CC(C)(C)O)C(=O)N1C[C@]2(C[C@H]1C#N)C(=O)Nc1ccccc12` [Example 443] reads 100 to 1000 nM; that for `CC(C)C[C@@H](C(=O)N1C[C@]2(C[C@H]1C#N)C(=O)Nc1ccccc12)N(C)C(=O)c1cc2cc(F)c(F)c(F)c2[nH]1` [Example 333], less than 100 nM. The result for `CC(C)(C)C[C@H](NC(=O)Nc1ccc2ccccc2c1)C(=O)N1C[C@]2(C[C@H]1C#N)C(=O)Nc1ccccc12` [Example 439] reads 100 to 1000 nM; that for `CC(C)(F)C[C@H](NC(=O)c1ccc(F)cc1F)C(=O)N1C[C@]2(C[C@H]1C#N)C(=O)Nc1ccc(Cl)cc12` [Example 449], 100 to 1000 nM. `Cc1ccc2cc(C(=O)N(C)[C@@H](CC3CC3)C(=O)N3C[C@]4(C[C@H]3C#N)C(=O)Nc3ccc(Cl)cc34)[nH]c2n1` [Example 462]: the IC50 is less than 100 nM. As for `CC(C)(C)C[C@H](NC(=O)c1cn(-c2cccc(Cl)c2)nn1)C(=O)N1C[C@]2(C[C@H]1C#N)C(=O)Nc1ccccc12` [Example 142], the IC50 fell in the range of 100 to 1000 nM. Compound `CCCC[C@H](NC(=O)[C@@H](O)c1ccc(F)cc1)C(=O)N1C[C@]2(C[C@H]1C#N)C(=O)Nc1ccccc12` [Example 418] had a 50% inhibitory concentration (IC50) of less than 100 nM. The value for `CC(C)C[C@@H](C(=O)N1C[C@]2(C[C@H]1C#N)C(=O)Nc1ccccc12)N(C)C(=O)c1ccc(C#N)c(Cl)c1` [Example 165] was 100 to 1000 nM.

In the case of `CC(C)C[C@@H](C(=O)N1C[C@]2(C[C@H]1C#N)C(=O)Nc1ccccc12)N(C)C(=O)c1ccc2nc(-c3ccccc3)ccc2c1` [Example 257], the IC50 was in the range of 100 to 1000 nM. The result for `C=CC(=O)N(C)[C@@H](CC(C)(C)F)C(=O)N1C[C@]2(C[C@H]1C#N)C(=O)Nc1ccccc12` [Example 535, N—((S)-1-((3R,5′S)-5′-cyano-2-oxospiro[indoline-3,3′-pyrrolidin]-1′-yl)-4-fluoro-4-methyl-1-oxopentan-2-yl)-N-methylacrylamide] reads 100 to 1000 nM; that for `CC(C)C[C@@H](C(=O)N1C[C@]2(C[C@H]1C#N)C(=O)Nc1ccccc12)N(C)C(=O)c1cc(Cl)cc(C#N)c1` [Example 187], less than 100 nM.

Consider `CC(C)C[C@@H](C(=O)N1C[C@]2(C[C@H]1C#N)C(=O)Nc1ccccc12)N(C)C(=O)c1c(F)ccc2ccncc12` [Example 299], for which the IC50 is less than 100 nM. The result for `CN(C(=O)CCN1CCCC1)[C@@H](CC(C)(C)F)C(=O)N1C[C@]2(C[C@H]1C#N)C(=O)Nc1ccccc12` [Example 541] reads less than 100 nM. The result for `CC(C)C[C@@H](C(=O)N1C[C@]2(C[C@H]1C#N)C(=O)Nc1ccccc12)N(C)C(=O)[C@@H](c1cn(C)nn1)C(C)C` [Example 350] reads less than 100 nM. The result for `CC(C)C[C@@H](C(=O)N1C[C@]2(C[C@H]1C#N)C(=O)Nc1ccccc12)N(C)C(=O)c1nnn(C(C)(C)C)n1` [Example 356] reads less than 100 nM.

`CC(C)C[C@@H](C(=O)N1C[C@]2(C[C@H]1C#N)C(=O)Nc1ccccc12)N(C)C(=O)[C@H](c1cnn(C)c1)C(C)C` [Example 349] had an IC50 of less than 100 nM.
